The values that follow come from PMC6723402, “Secondary Metabolites with α-Glucosidase Inhibitory Activity from the Mangrove Fungus Mycosphaerella sp. SYSU-DZG01” (Marine Drugs, 2019).

Data set [1] has as its target α-glucosidase. Put plainly: α-glucosidase inhibitory activity assay (p-nitrophenyl glycoside substrate, 96-well, 405 nm). In kind it is biochemical. Conditions: PBS pH 7.0, 37 °C. How it is done:
The α-glucosidase inhibitory activity was assayed according to the reported method. The inhibitory activity of α-glucosidase was tested in the 96-well plated with […] PBS (KH2PO4-K2HPO4, pH 7.0) buffer solution each. […] The assay was conducted in a 100 μL reaction system containing 20 μL enzyme stock solution, 69 μL PBS buffers and 1 μL of DMSO or testing materials. After 10 min incubation at 37 °C, 10 μL of the substrate was added and incubated for 20 min at 37 °C. The Absorbance which measured by a BIO-RAD (iMark) microplate reader at 405 nm was used to calculate the inhibitory activity according to the equation:η (%) = [(B − S)/B] × 100%(1) η (%) is the percentage of inhibition; B is the assay medium with DMSO; S is the assay medium with compound. The results of IC50 values were calculated by the nonlinear regression analysis.

Data set [2] in a line: DPPH· radical scavenging (antioxidant) assay. As to conditions: 30 min; for Antioxidant % Inhibition (100 μM): DPPH· scavenging at 100 μM; for EC50: DPPH· scavenging. The protocol:
The DPPH· scavenging was assayed according to the reported method. The DPPH radical scavenging test was performed in 96-well microplates. Testing materials (compounds 1–11) were added to 150 μL (0.16 mmol/L) DPPH solution in MeOH at a range of 50 μL solutions of different concentrations (2, 25, 50 and 100 μM). After 30 min, absorbance at 517 nm was measured and the percentage of activity was calculated. Ascorbic acid was used as a positive control.
In general terms: The DPPH test is a chemical assay of radical scavenging.

The IC50 is the concentration needed to halve the response being measured. Low values mean greater potency in that assay, high ones weaker potency in that assay. As usually defined, the EC50 is the concentration that produces a half-maximal response. A lower EC50 goes with higher potency in that assay. In the case of “1,3-dihydro-5-methoxy-7-methylisobenzofuran [Compound 6]”, the half-inhibitory concentration (IC50) in data set [1] is over 50 µM. For the same compound, in data set [2], the “Antioxidant % Inhibition (100 μM)” value is 65% and the midpoint of the response, the EC50, lay at 59.1 µM.

Consider `O=C1O[C@H]([C@@H](O)CO)C(O)=C1O` [Ascorbic acid, ascorbic acid, reference compound], for which, in data set [2], the “Antioxidant % Inhibition (100 μM)” value was 92% and the concentration giving a half-maximal response (EC50) stood at 22.4 µM.

As to `CC1=CC2C=C(C)C(C)C3C(CC(C)C)NC(=O)C23C(=O)C2C3OC(c4c(C)c(O)c(O)c(O)c43)C2C(=O)CCC1` (stereo not drawn) [Compound 1, asperchalasine I], in data set [1], the IC50 amounted to 17.1 µM. Besides, in data set [2], the “Antioxidant % Inhibition (100 μM)” value is 56% and the 50% effective concentration (EC50) is 77.8 µM.

In the case of `CC1=C(C)C2(C)C(=O)C(O)(C1=O)C1(C)C(=O)C2(O)C(=O)C(C)=C1C` [Compound 2, dibefurin B], the IC50 in data set [1] was over 50 µM. In data set [2], the “Antioxidant % Inhibition (100 μM)” value is listed as under 50%.

Broadly, the melting point is the temperature of the solid-liquid transition. `CC(O)C1OCc2c(O)cccc21` [Compound 3, (R)-9-((R)-10-hydroxyethyl)-7,9-dihydroisobenzofuran-1-ol] gave a melting point of 89.8 to 91.9 °C. Besides, the IC50 in data set [1] was over 50 µM. In addition, the “Antioxidant % Inhibition (100 μM)” value in data set [2] is on record as under 50%.

`COC(=O)c1c(C)c(O)c(O)c(O)c1C=O` [Compound 4, 2-methoxycarbonyl-4,5,6-trihydroxy-3-methyl-benzaldehyde] had a melting point of 95.9 to 97.8 °C. The IC50 in data set [1] is over 50 µM. In addition, in data set [2], the “Antioxidant % Inhibition (100 μM)” value stood at 57% and the 50% effective concentration (EC50) turned out to be 85.8 µM.

As to `Cc1c(O)c(O)c(O)c2c1COC2=O` [Compound 5, epicoccone B], the 50% inhibitory concentration (IC50) in data set [1] was over 50 µM. Further, the “Antioxidant % Inhibition (100 μM)” value in data set [2] is recorded as under 50%.

In data set [1], `Cc1c(O)cc(O)c(C(=O)OC[C@@H](O)[C@H](O)[C@H](O)CO)c1C` [Compound 7, paeciloside A] showed an IC50 of over 50 µM. Also, the “Antioxidant % Inhibition (100 μM)” value in data set [2] is given as under 50%.

Consider `Cc1c(O)c(O)c(O)c(C=O)c1-c1cc2c(C=O)c(C)c(O)c(O)c2o1` [Compound 8, epicoccolide B], for which the midpoint of inhibition in data set [1], the IC50, lay at 26.7 µM. For the same compound, in data set [2], the “Antioxidant % Inhibition (100 μM)” value was 89% and the EC50 was 16.3 µM.
